Experimental data reported in publication PMC1241435 (Environmental Health Perspectives, 2003).

Assays:
[1] = biological target: T1, FMO I (Homo sapiens, UniProt Q01740); test: sulfoxide formation by microsomes of cells expressing the recombinant enzyme; assay type: cell-based
T1 sequence (Q01740 2-532): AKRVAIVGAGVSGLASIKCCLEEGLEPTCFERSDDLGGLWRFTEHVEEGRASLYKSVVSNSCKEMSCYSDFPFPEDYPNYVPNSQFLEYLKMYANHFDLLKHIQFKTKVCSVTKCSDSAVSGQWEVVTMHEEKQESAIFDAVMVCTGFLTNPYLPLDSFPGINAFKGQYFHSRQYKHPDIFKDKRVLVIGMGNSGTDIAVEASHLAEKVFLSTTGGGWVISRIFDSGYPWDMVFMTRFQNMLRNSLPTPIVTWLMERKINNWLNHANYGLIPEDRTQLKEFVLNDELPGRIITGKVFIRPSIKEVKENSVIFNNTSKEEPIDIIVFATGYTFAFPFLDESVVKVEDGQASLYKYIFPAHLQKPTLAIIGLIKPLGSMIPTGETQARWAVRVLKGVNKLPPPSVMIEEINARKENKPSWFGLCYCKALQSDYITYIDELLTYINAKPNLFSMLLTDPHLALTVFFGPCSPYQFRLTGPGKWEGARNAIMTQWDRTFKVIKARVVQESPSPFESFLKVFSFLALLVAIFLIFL

[2] = biological target: T2, CYP 1A1 (Homo sapiens, UniProt P04798); test: as above; assay type: cell-based
T2 sequence (P04798 1-512): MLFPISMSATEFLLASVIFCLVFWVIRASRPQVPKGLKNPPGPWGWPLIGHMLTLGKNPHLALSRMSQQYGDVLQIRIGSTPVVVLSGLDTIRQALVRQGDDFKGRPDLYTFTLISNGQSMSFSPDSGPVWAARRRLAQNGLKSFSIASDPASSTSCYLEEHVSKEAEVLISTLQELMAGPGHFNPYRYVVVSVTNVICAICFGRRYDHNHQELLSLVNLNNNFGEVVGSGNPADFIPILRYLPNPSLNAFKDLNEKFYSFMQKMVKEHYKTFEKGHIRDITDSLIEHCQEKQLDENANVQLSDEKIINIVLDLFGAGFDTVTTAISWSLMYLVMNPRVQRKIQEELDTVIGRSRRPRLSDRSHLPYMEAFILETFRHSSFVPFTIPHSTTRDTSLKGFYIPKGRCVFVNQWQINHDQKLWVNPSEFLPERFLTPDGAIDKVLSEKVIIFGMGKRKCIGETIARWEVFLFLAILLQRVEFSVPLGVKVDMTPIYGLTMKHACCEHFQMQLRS

## COP(=S)(OC)Oc1ccc(SC)c(C)c1 [fenthion, O,O-dimethyl-O-(4-methylmercapto)-3-methylphenylthio-phosphate]
[1]
  sulfoxide formation by microsomes of cells expressing the recombinant enzyme: 62.4 nmol/min/mg protein
[2]
  sulfoxide formation by microsomes of cells expressing the recombinant enzyme: 3.6 nmol/min/mg protein
